Patent US20060287320A1, “Preparation of thioarabinofuranosyl compounds and use thereof” (Southern Research Institute, priority 1998, published 2006)
Read-outs that look alike come from different tables or passages of the source. Blank lines part the entries; values can stand above or below the molecule they belong to.

Experiments:
ZR-75-1 Mammary = test: In vitro IC50, 72 hour exposure, Natural Red assay; type: cell-based; details: read-out: IC50 Molar Values
Procedure: (§1) EXAMPLE 3 The following in vitro tests were carried out.
(§2) The above tests were carried out with a 72 hour exposure to the compound using Natural Red assay for all cell lines except SK-MEL 28 which was done with SRB assay.

PC-3 Prostate = test: In vitro IC50, 72 hour exposure, Natural Red assay; type: cell-based; details: read-out: IC50 Molar Values
Procedure: as §1, §2

DLD-1 Colon = test: In vitro IC50, 72 hour exposure, Natural Red assay; type: cell-based; details: read-out: IC50 Molar Values
Procedure: as §1, §2

CAK1-1 Renal = test: In vitro IC50, 72 hour exposure, Natural Red assay; type: cell-based; details: read-out: IC50 Molar Values
Procedure: as §1, §2

LOX IMV1 Melanoma = test: In vitro IC50, 72 hour exposure, Natural Red assay; type: cell-based; details: read-out: IC50 Molar Values
Procedure: as §1, §2

NC1-H23 Lung = test: In vitro IC50, 72 hour exposure, Natural Red assay; type: cell-based; details: read-out: IC50 Molar Values
Procedure: as §1, §2

CEM cells [1] = test: Retention of araCTP and T-araCTP in CEM cells (FIG. 2); type: cell-based; details: CEM cells, 1 hour with 5 nM [5-3H]araC
Procedure: […]. Samples were collected at various times after the cells were resuspended in fresh medium, and the amount of radioactivity in the 5′-triphosphate peak was determined using SAX HPLC. In this experiment there was 0.639 pmoles araCTP/10^6 cells and 0.246 pmoles of T-araCTP after the 1 hour incubation with radiolabeled compound.

CEM cells [2] = test: Initial half-life of triphosphates in CEM cells; type: cell-based; details: CEM cells after 1 hour with 100 nM radiolabeled nucleoside, then fresh medium; 5′-triphosphate peak
Procedure: Samples were collected at various times after the cells were resuspended in fresh medium, and the amount of radioactivity in the 5'-triphosphate peak was determined using SAX HPLC. The data presented are the mean and standard deviation from 3 separate experiments.

SC HCT-116 Colon Tumor = test: Response of SC HCT-116 Colon Tumor to Treatment; type: in vivo; details: Q 4H × 3 day 6-14
Procedure: (§3) The following in vivo tests were carried out to illustrate the effectiveness of the compounds of the present invention.

SC CAKI-1 Renal Tumor = test: Response of SC CAKI-1 Renal Tumor to Treatment; type: in vivo; details: Q 4H × 3 day 7-15
Procedure: as §3

[3] = system: protein synthesis in CEM cells; test: Effect on protein synthesis ([3H]leucine incorporation) in CEM cells; type: cell-based; details: 150 nM, average of two experiments
Procedure: (§4) Radiolabeled precursors of DNA [^3H]dThd, RNA ([^3H]Urd), or protein ([^3H]leucine) were added to each treatment 30 minutes after the addition of each compound. Samples were taken 1, 2, 3 and 4 hours after the addition of radiolabeled precursors, and the incorporation of radioactivity into RNA, DNA, or protein were determined as described (Parker et al, Biochem. Pharmacol. 55: 1673-1681, 1998). Each number represents the average of two experiments.

araC-resistant CEM cells [4] = test: Inhibition of CEM cell growth, araC-resistant; details: read-out: IC50 (nM) araC-resistant; araC-resistant CEM cells; cell numbers by Coulter Counter; mean and standard deviation from 3 experiments
Procedure: (§7) CEM cells were incubated with various concentrations of each compound and the effect on. cell numbers was determined using a Coulter Counter. The IC50 was determined from a plot of the percent of control growth versus drug concentration. The data presented are the mean and standard deviation from 3 separate experiments.

CEM cells [5] = test: Complete metabolism of dCyd, T-dCyd, araC and T-araC in CEM cells; type: cell-based; details: 100 nM, incubation 1 hour
Procedure: The complete metabolism of each compound was determined: The medium was analyzed for the original compound, its deaminated form using reverse phase HPLC, and H20; the acid-soluble extract was analyzed by SAX HPLC for phosphorylated metabolites; and the incorporation of radioactivity into acid-precipitable material (DNA) was determined.

SNB-7 (CNS) = test: In vitro IC50, 72 hour exposure, Natural Red assay; type: cell-based; details: read-out: IC50 Molar Values
Procedure: as §1, §2

CEM cells (wild-type) [6] = test: Inhibition of CEM cell growth, wild-type; details: read-out: IC50 (nM) Wild-type; wild-type CEM cells; cell numbers by Coulter Counter; mean and standard deviation from 3 experiments
Procedure: as §7

SK-MEL 28 Melanoma = test: In vitro IC50, 72 hour exposure, SRB assay; type: cell-based; details: read-out: IC50 Molar Values
Procedure: as §1, §2

CEM cells [7] = test: Effect of F-dUrd on metabolism (deamination) in CEM cells; type: cell-based; details: 100 nM
Procedure: The complete metabolism of each compound was determined as described in the legend to Table 12, and the percent of deaminated metabolites for each compound was determined.

[8] = Phosphorylation in cell-free CEM extracts, wild-type; type: biochemical; details: wild-type CEM cell extract; 1 μm substrate
Procedure: (§5) The number in parentheses is the number of experiments performed. […] At various times after the initiation of the experiment, an aliquot of each reaction volume was removed and placed on DE-81 filters. The filters were washed with 1 mM ammonium formate and ethanol, and the amount of radioactivity on each filter was determined. […] This assay was verified by HPLC.

[9] = system: DNA synthesis in CEM cells; test: Effect on DNA synthesis ([3H]dThd incorporation) in CEM cells; type: cell-based; details: 150 nM, average of two experiments
Procedure: as §4

[10] = system: RNA synthesis in CEM cells; test: Effect on RNA synthesis ([3H]Urd incorporation) in CEM cells; type: cell-based; details: 150 nM, average of two experiments
Procedure: as §4

[11] = Phosphorylation in cell-free CEM extracts, araC-resistant; type: biochemical; details: for Percent of wild-type: phosphorylation in araC-resistant vs wild-type CEM extract
Procedure: as §5

araC-resistant CEM cells [12] = test: Metabolism of dCyd and analogs in araC-resistant CEM cells; type: cell-based; details: 100 nM, incubation time 0.25 hours
Procedure: (§6) The radioactivity in the 5′-triphosphate peak and the incorporation of radioactivity in the acid-insoluble fraction (DNA) was determined.

CEM cells (wild-type) [13] = test: Metabolism of dCyd and analogs in wild-type CEM cells; type: cell-based; details: WT CEM cells; 100 nM; incubation time 0.25 hours
Procedure: as §6

IC50 (ZR-75-1 Mammary; Homo sapiens): 600 nM | IC50 (PC-3 Prostate): 100000 nM | IC50 (DLD-1 Colon; Homo sapiens): 80000 nM | IC50 (CAK1-1 Renal): 20000 nM | IC50 (LOX IMV1 Melanoma): 6000 nM | IC50 (NC1-H23 Lung): 3000 nM
Structure (SMILES): Nc1nc(=O)n([C@@H]2S[C@H](CO)[C@@H](O)[C@@H]2O)cc1F [5-fluorothioaraC, 1-(4-Thio-β-D-arabinofuranosyl)5-fluorocytosine]

araCTP after the 1 hour incubation (CEM cells [1]): 0.639 pmoles/10^6 cells | Initial Half-Life, Hours (SD) (CEM cells [2]): 5.31 ± 0.31 h
Structure (SMILES): Nc1ccn([C@@H]2O[C@H](COP(=O)(O)OP(=O)(O)OP(=O)(O)O)[C@@H](O)[C@@H]2O)c(=O)n1 [araCTP]

Structure (SMILES): Nc1ccn([C@@H]2O[C@H](CO)[C@@H](O)[C@@H]2O)c(=O)n1 [araC, cytosine arabinoside]
Days Delay (T − C) (SC HCT-116 Colon Tumor; 9 Mg/Kg IP): 2.0 days | Days to 2 Doubling (SC HCT-116 Colon Tumor; 9 Mg/Kg IP): 10.9 days | Non-Specific Deaths/Total (SC HCT-116 Colon Tumor; 9 Mg/Kg IP): 0/6 | Tumor Free Surv/Total (SC HCT-116 Colon Tumor; 9 Mg/Kg IP): 0/6 | Tumor Regression Number of Complete (SC HCT-116 Colon Tumor; 9 Mg/Kg IP): 0 | Tumor Regression Number of Partial (SC HCT-116 Colon Tumor; 9 Mg/Kg IP): 0 | Days Delay (T − C) (SC HCT-116 Colon Tumor; 13.3 Mg/Kg IP): 3.3 days | Days to 2 Doubling (SC HCT-116 Colon Tumor; 13.3 Mg/Kg IP): 12.2 days | Non-Specific Deaths/Total (SC HCT-116 Colon Tumor; 13.3 Mg/Kg IP): 0/6 | Tumor Free Surv/Total (SC HCT-116 Colon Tumor; 13.3 Mg/Kg IP): 0/6 | Tumor Regression Number of Complete (SC HCT-116 Colon Tumor; 13.3 Mg/Kg IP): 0 | Tumor Regression Number of Partial (SC HCT-116 Colon Tumor; 13.3 Mg/Kg IP): 0 | Days Delay (T − C) (SC CAKI-1 Renal Tumor; 13.3 Mg/Kg IP): 11.0 days | Days to 3 Doubling (SC CAKI-1 Renal Tumor; 13.3 Mg/Kg IP): 20.5 days | Non-Specific Deaths/Total (SC CAKI-1 Renal Tumor; 13.3 Mg/Kg IP): 0/6 | Tumor Free Surv/Total (SC CAKI-1 Renal Tumor; 13.3 Mg/Kg IP): 0/6 | Tumor Regression Number of Complete (SC CAKI-1 Renal Tumor; 13.3 Mg/Kg IP): 0 | Tumor Regression Number of Partial (SC CAKI-1 Renal Tumor; 13.3 Mg/Kg IP): 0 | Days Delay (T − C) (SC CAKI-1 Renal Tumor; 20 Mg/Kg IP): 6.2 days | Days to 3 Doubling (SC CAKI-1 Renal Tumor; 20 Mg/Kg IP): 15.7 days | Non-Specific Deaths/Total (SC CAKI-1 Renal Tumor; 20 Mg/Kg IP): 5/6 | Toxicity remark under Days Delay (T − C) (SC CAKI-1 Renal Tumor; 20 Mg/Kg IP): (Toxic) | Tumor Free Surv/Total (SC CAKI-1 Renal Tumor; 20 Mg/Kg IP): 0/6 | Tumor Regression Number of Complete (SC CAKI-1 Renal Tumor; 20 Mg/Kg IP): 0 | Tumor Regression Number of Partial (SC CAKI-1 Renal Tumor; 20 Mg/Kg IP): 0 | Days Delay (T − C) (SC CAKI-1 Renal Tumor; 30 Mg/Kg IP): 16.2 days | Days to 3 Doubling (SC CAKI-1 Renal Tumor; 30 Mg/Kg IP): 25.7 days | Non-Specific Deaths/Total (SC CAKI-1 Renal Tumor; 30 Mg/Kg IP): 5/6 | Toxicity remark under Days Delay (T − C) (SC CAKI-1 Renal Tumor; 30 Mg/Kg IP): (Toxic) | Tumor Free Surv/Total (SC CAKI-1 Renal Tumor; 30 Mg/Kg IP): 0/6 | Tumor Regression Number of Complete (SC CAKI-1 Renal Tumor; 30 Mg/Kg IP): 0 | Tumor Regression Number of Partial (SC CAKI-1 Renal Tumor; 30 Mg/Kg IP): 0 | protein synthesis, Percent of control [3]: 96% of control | IC50 (araC-resistant CEM cells [4]): 800 ± 400 nM | DNA (percent of total) (CEM cells [5]): 0.4% of total | Deaminated Compound (percent of total) (CEM cells [5]): 0% of total | H20 (percent of total) (CEM cells [5]): 0% of total | Original Compound (percent of total) (CEM cells [5]): 87% of total | nucleoside-TP (percent of total) (CEM cells [5]): 13% of total | IC50 (ZR-75-1 Mammary): 400 nM | IC50 (SNB-7 (CNS)): 200 nM | IC50 (PC-3 Prostate): 5000 nM | IC50 (DLD-1 Colon): 5000 nM | IC50 (CAK1-1 Renal): 600 nM | IC50 (LOX IMV1 Melanoma): 1000 nM | IC50 (NC1-H23 Lung): 300 nM | IC50 (CEM cells (wild-type) [6]): 6 ± 3 nM | IC50 (SK-MEL 28 Melanoma): 2000 nM | Percent Deamination (CEM cells [7]; F-dUrd 0 μM, incubation time 8 hours): 0% | Percent Deamination (CEM cells [7]; F-dUrd 10 μM, incubation time 8 hours): 10% | Phosphorylation, Wild-type [8]: 94 pmoles/mg protein/minute | DNA synthesis, Percent of control [9]: 8% of control | RNA synthesis, Percent of control [10]: 96% of control | Phosphorylation, araC-resistant CEM cells ([11]; araC-resistant CEM cell extract, 1 μm substrate): 1.2 pmoles/mg protein/minute | Percent of wild-type [11]: 1.3% of wild-type

DNA (araC-resistant CEM cells [12]): 0.011 pmoles/10^6 cells | DNA (percent of WT) (araC-resistant CEM cells [12]): 0.89% of WT | Total (araC-resistant CEM cells [12]): 0.032 pmoles/10^6 cells | Total (percent of WT) (araC-resistant CEM cells [12]): 0.91% of WT | DNA (percent of total) (CEM cells [5]): 3% of total | Original Compound (percent of total) (CEM cells [5]): 38% of total | Percent Deamination (CEM cells [7]; F-dUrd 0 μM, incubation time 1 hour): 32% | Percent Deamination (CEM cells [7]; F-dUrd 10 μM, incubation time 1 hour): 22% | DNA (CEM cells (wild-type) [13]): 1.19 pmoles/10^6 cells | Total (CEM cells (wild-type) [13]): 3.46 pmoles/10^6 cells
Structure (SMILES): Nc1ccn([C@H]2C[C@H](O)[C@@H](CO)O2)c(=O)n1 [dCyd, 2′-deoxycytidine]
Phosphorylation, Wild-type [8]: 240 ± 33 pmoles/mg protein/minute | Percent of wild-type [11]: 1.5% of wild-type
